Assay results published in patent US20230277449A1, “ORAL CAVITY POLYMERIC DELIVERY SYSTEMS” (YISSUM RESEARCH DEVELOPMENT COMPANY OF THE HEBREW …, priority 2020, published 2023).
Read-outs that look alike come from different tables or passages of the source.

Key:
[1] = cited from earlier work
[2] = Ex-vivo permeability of APO, MTP and ATN in Ussing diffusion chamber; assay type: in vitro ADME, pig
Excerpt: Each chamber includes a heating block for temperature control and needle valves for adjustment of carbogen gas flow for oxygenation and gas lift stirring. Buccal tissues of female pigs, ~100 kg, were used in the experiments. Pigs were exposed to anesthetic agents, antibiotics, contrast agents and sacrificed by over exposure to KC1. […] Immediately following euthanasia, buccal tissue was removed and placed in ice-cold modified Ringer’s buffer (pH 7.4). Buccal mucosa segments were trimmed to 800-1000 µm by surgical scissors and tweezers and mounted into Ussing diffusion chambers. The exposed tissue surface area was 0.5 cm^2 and buffered solutions volume in each cell was 3 ml. The system was preheated to 35° C. Modified Ringer buffer was added to the receiver compartment and simulated saliva buffer to the donor side. The tissue oxygenation and the solution mixing were performed by bubbling with carbogen gas. The system was equilibrated for 30 min followed by replacing the solutions and adding 20 µl of the test solutions to the donor side of the chamber to commence the experiment.
Solutions were freshly prepared on the days of the experiments. […] When testing the effect of organic solvents, 100 µl of the simulated saliva in the donor chamber were replaced by 100 µl of 1:1EtOH:PG solution. When testing the effect of NLF 70 µl of the simulated saliva in the donor chamber were replaced by 70 µl of NLF. […] The constituents are melted at 37° C. and mixed until a clear yellow homogenous solution is obtained.
3.1.3 Experimental protocol: 100 µl samples were taken from receiver compartment at the beginning of the experiments, at half an hour and every hour until the end of the experiments. 100 µl of fresh Ringer’s buffer solution were added each time to receiver compartment. The dilution of the concentration of tested substances in the receiver compartment was accounted for. […] All samples were stored at -20° C. pending analysis.
The analysis conditions were as follows: XTerra MS (Waters Inc.) C18 Column (3.5 µm, 2.1 mm × 100 mm), temperature 45° C., flow rate 0.2 ml/min and mobile phase with a linear gradient as detailed in Table 23.
Statistical significance was stated for p<0.05. […] Papp calculation and simulations of steady state plasma levels for in-vivo testing
Apparent permeability (Papp) is calculated by Eq. 5: […]

[3] = Monitored vital parameters after IV APO in pigs; assay type: in vivo, pig; details: 1 mg/kg IV APO, mean (lowest - highest)
Excerpt: Pigs were fasted overnight before the experiments. […] Pigs were positioned on their back.

Papp lower at pH 5.9 than at pH 7.4 [2]: 6 fold
Papp at […] ([2]; female, pig, pH 7.4, read-out: Apparent permeability (Papp)): 3.13 ×10⁻⁶ cm/s
Papp ([2]; female, pig, pH 7.4 with 3.33% v/v of 1:1 ethanol: propylene glycol solution, read-out: Apparent permeability (Papp)): 11.6 ×10⁻⁶ cm/s
Papp at 0.1 mM ([2]; female, pig, simulated saliva pH 5.9, mean (±SD), n=3, read-out: Apparent permeability (Papp)): 0.51 ×10⁻⁶ cm/s
Papp at 0.1 mM ([2]; female, pig, simulated saliva pH 7.4, standard 0.1 mM, mean (±SD), n=3, read-out: Apparent permeability (Papp)): 3 ×10⁻⁶ cm/s
Apparent permeability (Papp) ([2]; pH 7.4 with 3.33% v/v of 1:1 ethanol: propylene glycol solution): 11.63 10^-6 cm/sec
lag-time ([2]; pH 7.4 without 10% v/v NLF): ~ 1 hour
Apparent permeability (Papp) ([2]; simulated saliva pH 7.4, standard 0.1 mM, mean (±SD), n=3): 3.00 (0.26) 10^-6 cm/sec
Diastolic blood press (mmHg) [3]: 43.1 (32 - 55) mmHg
O2 saturation (%) [3]: 97.7 (95 - 100) %
Respiration rate kept at (min^-1) [3]: 12.2 (11- 13) min^-1
Systolic blood press (mmHg) [3]: 81.7 (72 - 101) mmHg
Rectal temp (°C) ([3]; four pigs): 38.2 (37.4 - 39.4) °C
SMILES: CN1CCc2cccc3c2[C@H]1Cc1ccc(O)c(O)c1-3 [APO, apomorphine]
log P [1]: 2.0
Heart rate (beats/min) [3]: 95.2 (74 - 120) beats/min
